{"source": "patent US20140113904A1", "about": "“TREATMENT OF CANCER WITH TOR KINASE INHIBITORS” (SIGNAL PHARMACEUTICALS, LLC, priority 2012, published 2014)", "key": {"pS6": {"system": "pS6", "assay": "pS6 in PC3 tumors, MSD (Compound 1)", "type": "in vivo, SCID mice", "details": "for pS6 inhibition in tumor: through 24 hours", "procedure": "The plasma and tumor samples were collected at various time points following compound administration as described.\nMice were monitored daily for clinical signs and body weight changes. At the end of the study, mice were euthanized and plasma and tumor samples were collected for PK/PD determination. PD markers, pS6 and pAkt, were measured using MSD technology.\nAfter the last measurement, the experiment was terminated by taking the plasma and tumor samples for PK and PD measurements. Compound concentrations in plasma and tumor were determined by LC-MS/MS. PD markers, pS6 and pAkt, were measured using MSD technology.\nAt predetermined time points following dosing, mice were euthanized and plasma and tumor samples were collected for PK/PD determination. Compound concentrations in plasma and tumor were determined by LC-MS/MS. PD markers, pS6 and pAkt, were measured using Mesoscale technology.\nFor Mesoscale discovery assays, tissue samples were homogenized in lysis buffer containing protease and phosphatase inhibitors and centrifuged for 10 minutes at 1200 rpm at 4° C. Supernatants were sonicated for 1 minute at 4° C., aliquoted and stored at −80° C. Protein concentrations in samples were determined using BCA Protein Assay Reagent Kit (Thermo Scientific). Meso Scale Discovery kits and protocol for measuring the pS6 and pAkt/Total Akt kits were used. MSD 96-well plates spotted with pS6, pAkt/total Akt were blocked with blocking solution for 5 minutes followed by a wash with wash buffer. […] of tumor lysates were added to each well and incubated for 2 hours followed by a 4× wash with a wash buffer. Detection antibody was added to each well and incubated in the dark for 1 hour at 4° C. The plates were then washed and bound antigen was read using an MSD SECTOR™ instrument."}, "PC3 cell line": {"system": "PC3 cell line", "assay": "WST-1 cell proliferation assay (Compound 2)", "type": "cell-based", "details": "Homo sapiens", "procedure": "All growth inhibition experiments were repeated on different occasions at least twice. Potency was determined by calculating the IC50 value using the data describing the growth inhibition curve. A reference compound was included in each plate assay to monitor inter-assay variation and the IC50 value for the reference compound was used as part of the acceptance criteria for the assay. […] Next, compound was added to the designated well at a dilution of 1:10 (i.e., 20 μL of the diluted compound was added to 180 μL of culture media in each well). The final dilution of compound was 1:500, which yielded a final DMSO concentration of 0.2% in each well. All concentrations were performed in triplicate. Additionally, each plate tested contained cells treated with a reference compound in order to evaluate interassay variation and the IC50 value generated was used as criteria in accepting the test data. […] Cell proliferation was assessed using the WST-1 assay, which is based on measurement of metabolic activity via the reduction of tetrazolium salts to formazan salts. […] Absorbance was measured at 450 nm on the VICTOR™ X2 multilabel plate reader (PerkinElmer). […] The software (XLfit from IDBS) calculated the percentage inhibition at each concentration of compound by normalizing to the DMSO control values. […] Percentage inhibition curves were plotted and IC50 values calculated."}, "AKT (T308)": {"system": "AKT (T308)", "assay": "Phospho-AKT (T308) in PC-3 cell lysates, MSD (Compound 2)", "type": "cell-based", "details": "Homo sapiens; PC-3, 1 hour; read-out: PDK1 AKT (T308) IC50", "procedure": "(§1) The direct substrate for mTORC1 was 4E-BP1(T46) and the indirect downstream substrate was S6RP (S235/S236). The direct substrate for mTORC2 was AKT (S473) and the indirect downstream substrates measured were GSK3β(S9) and PRAS40 (T246). Additionally, the phosphorylation status of AKT (T308), a phosphorylation site for PDK1, was monitored. Concentration-response curves were plotted and IC50 values determined. Cells were plated in 96-well flat bottom plates at the required density (PC-3 cells/well) and the cells were allowed to equilibrate at 37° C., 5% CO2 overnight. […] After the incubation period, the culture media was removed carefully with an aspirator. The plate was placed on ice and 50 μL of 1× Tris Lysis Buffer was added to each well. The plate was placed on a shaker at 4° C. for 1 hour to lyse the cells. At that point, the plate was either frozen at -80° C. for later analysis or immediately assayed for phosphoproteins as described below. To monitor interassay variability, a reference standard was included in the assay for PC-3 cells and the coefficient of variation for assay of […]) was 9.3% (n=50) and for assay of p-AKT (S473) was 28.6% (n=50). The assay plate was incubated with 150 μL of MSD Blocking Buffer for 1 hour with shaking at room temperature. […] Then 150 μL of 1×MSD Read Buffer T was added to each well. The plate was read on the SECTOR Imager plate reader."}, "DNA-PKcs": {"system": "DNA-PKcs", "assay": "Total DNA-PKcs immunohistochemistry in PC3 tumors (Compound 2)", "type": "in vivo, SCID mice", "details": "5 mg/kg QD for 6 days, 2 hours after the last dose"}, "GSK3β (S9)": {"system": "GSK3β (S9)", "assay": "Phospho-GSK3Beta (S9) in PC-3 cell lysates, MSD (Compound 2)", "type": "cell-based", "details": "Homo sapiens; PC-3, 1 hour; read-out: mTORC2 GSK3β (S9) IC50", "procedure": "as §1"}}, "note": "Where two headings read alike, the source gives them in different places."}
{"smiles": "CO[C@H]1CC[C@H](N2C(=O)CNc3ncc(-c4ccc(C(C)(C)O)nc4)nc32)CC1", "note": "[Compound 1, 7-(6-(2-hydroxypropan-2-yl)pyridin-3-yl)-1-((1r,4r)-4-methoxycyclohexyl)-3,4-dihydropyrazino-[2,3-b]pyrazin-2(1H)-one]", "values": [{"measurement": "inhibition of pS6", "setting": "pS6; 0.3 mg/kg single dose, 0.5 h, data not shown", "result": 81, "unit": "%"}, {"measurement": "pS6 inhibition", "setting": "pS6; 0.3 mg/kg single dose, up to 2 hours, data not shown", "result": "Approximately 80%"}, {"measurement": "pS6 inhibition", "setting": "pS6; 1 mg/kg single dose, up to 4 hours", "result": "Approximately 80%"}, {"measurement": "PD Marker Inhibition (%) pS6", "setting": "pS6; 1 mg/kg single oral dose, 0.5 h", "result": 80.8, "unit": "%"}, {"measurement": "PD Marker Inhibition (%) pS6", "setting": "pS6; 1 mg/kg single oral dose, 2 h", "result": 82.8, "unit": "%"}, {"measurement": "PD Marker Inhibition (%) pS6", "setting": "pS6; 1 mg/kg single oral dose, 4 h", "result": 78.6, "unit": "%"}, {"measurement": "PD Marker Inhibition (%) pS6", "setting": "pS6; 1 mg/kg single oral dose, 6 h", "result": 53.1, "unit": "%"}, {"measurement": "PD Marker Inhibition (%) pS6", "setting": "pS6; 1 mg/kg single oral dose, 10 h", "result": 14.4, "unit": "%"}, {"measurement": "PD Marker Inhibition (%) pS6", "setting": "pS6; 1 mg/kg single oral dose, 24 h", "result": 20.6, "unit": "%"}, {"measurement": "inhibition of pS6 in tumors", "setting": "pS6; 10 mg/kg QD 5 days, 24 hours after the last dose", "result": 22, "unit": "%"}, {"measurement": "inhibition of pS6", "setting": "pS6; 10 mg/kg single dose, up to 8 hours", "result": "> 80", "unit": "%"}, {"measurement": "PD Marker Inhibition (%) pS6", "setting": "pS6; 10 mg/kg single oral dose, 1 h", "result": 79.5, "unit": "%"}, {"measurement": "PD Marker Inhibition (%) pS6", "setting": "pS6; 10 mg/kg single oral dose, 3 h", "result": 91.9, "unit": "%"}, {"measurement": "PD Marker Inhibition (%) pS6", "setting": "pS6; 10 mg/kg single oral dose, 8 h", "result": 91.2, "unit": "%"}, {"measurement": "PD Marker Inhibition (%) pS6", "setting": "pS6; 10 mg/kg single oral dose, 16 h", "result": 32.4, "unit": "%"}, {"measurement": "PD Marker Inhibition (%) pS6", "setting": "pS6; 10 mg/kg single oral dose, 24 h", "result": 32.7, "unit": "%"}, {"measurement": "PD Marker Inhibition (%) pS6", "setting": "pS6; 10 mg/kg single oral dose, 48 h", "result": 39.5, "unit": "%"}, {"measurement": "PD Marker Inhibition (%) pS6", "setting": "pS6; 10 mg/kg single oral dose, 72 h", "result": 47.9, "unit": "%"}, {"measurement": "inhibition of pS6 levels", "setting": "pS6; 25 mg/kg single dose, up to 24 hours", "result": "> 80", "unit": "%"}, {"measurement": "PD Marker Inhibition (%) pS6", "setting": "pS6; 25 mg/kg single oral dose, 1 h", "result": 87.9, "unit": "%"}, {"measurement": "PD Marker Inhibition (%) pS6", "setting": "pS6; 25 mg/kg single oral dose, 3 h", "result": 95.1, "unit": "%"}, {"measurement": "PD Marker Inhibition (%) pS6", "setting": "pS6; 25 mg/kg single oral dose, 8 h", "result": 92.3, "unit": "%"}, {"measurement": "PD Marker Inhibition (%) pS6", "setting": "pS6; 25 mg/kg single oral dose, 16 h", "result": 92.1, "unit": "%"}, {"measurement": "PD Marker Inhibition (%) pS6", "setting": "pS6; 25 mg/kg single oral dose, 24 h", "result": 83.7, "unit": "%"}, {"measurement": "PD Marker Inhibition (%) pS6", "setting": "pS6; 25 mg/kg single oral dose, 48 h", "result": 47.2, "unit": "%"}, {"measurement": "PD Marker Inhibition (%) pS6", "setting": "pS6; 25 mg/kg single oral dose, 72 h", "result": 68.3, "unit": "%"}, {"measurement": "pS6 inhibition in tumor", "setting": "pS6; 30 mg/kg single oral dose", "result": 78, "unit": "%"}, {"measurement": "pS6 inhibition in tumor", "setting": "pS6; 100 mg/kg single oral dose", "result": 91, "unit": "%"}, {"measurement": "both PD markers (pS6, pAKT) in tumors", "setting": "pS6; 25 and 50 mg/kg QD, 24 hr timepoint, data not shown", "result": "significantly inhibited"}]}
{"smiles": "CCN1C(=O)CNc2ncc(-c3ccc(-c4nc[nH]n4)nc3C)nc21", "note": "[Compound 2, 1-ethyl-7-(2-methyl-6-(1H-1,2,4-triazol-3-yl)pyridin-3-yl)-3,4-dihydropyrazino[2,3-b]pyrazin-2(1H)-one]", "values": [{"measurement": "IC50", "setting": "PC3 cell line; PC-3, 72 h, PC3 cell line, 3 days, average, read-out: growth inhibition IC50", "result": 140, "unit": "nM"}, {"measurement": "IC50", "setting": "PC3 cell line; PC-3, prostate tumor cells, read-out: growth inhibition IC50 values", "result": "140 to 1310", "unit": "nM"}, {"measurement": "IC50", "setting": "AKT (T308)", "result": 48, "unit": "nM"}, {"measurement": "positive threshold area stained for DNA-PKcs vs vehicle", "setting": "DNA-PKcs", "result": "no significant difference"}, {"measurement": "IC50", "setting": "GSK3β (S9)", "result": 17, "unit": "nM"}]}
